Legend:
[1] = tested on: skin; assay: skin cell-renewal (exfoliation) rate after topical application; type: in vivo, human
Experimental: (§1) Skin irritation, expressed as a “Sting” percentage, was also determined. The increase in skin cell renewal rate and irritation level was measured substantially according to the procedure described in Soap/Cosmetics/Chemical Specialties for September 1993 at pp. 54-58 and 76.

[2] = tested on: skin; assay: skin irritation level (Sting %) after topical application; type: in vivo, human
Experimental: as §1

[3] = cited from earlier work
[4] = 0.5 wt % active, composition pH 5.65
[5] = 1.0 wt % active, composition pH 7.21

| SMILES | Cell-Renewal Rate % ([1]; 5 wt % active, composition pH 3) [%] | Irritation Level (Sting %) [2, 4] [%] | Irritation Level (Sting %) [2, 5] [%] | irritation to the skin relative to Lactic Acid ([2]; at pH 7.21, relative to Lactic Acid) | times less irritating to the skin than Lactic Acid ([2]; relative to Lactic Acid 5 wt %, pH 3) | Cell-Renewal Rate % [1, 4] [%] | Cell-Renewal Rate % [1, 5] [%] | solubility in water [3] |
| --- | --- | --- | --- | --- | --- | --- | --- | --- |
| CC(O)C(=O)O (centres unmarked) [Lactic Acid, reference compound] | 31.7 | – | – | – | – | – | – | – |
| Cc1c(C)c2c(c(C)c1OP(=O)(O)O)CC[C@@](C)(CCC[C@H](C)CCC[C@H](C)CCCC(C)C)O2 [VEP, Sodium Vitamin E Phosphate] | – | 17.3 | 10.7 | about one-twentieth | at least 4.5 times | 15.2 | 16.6 | soluble in water |
